Key:
AmGH29C = biological target: T1, AmGH29C (Akkermansia muciniphila, UniProt B2UNB9); assay: inhibition of pNPFuc hydrolysis, A405; format: biochemical
T1 construct: gene Amuc_0392; mature peptide lacking the signal peptide
T1 sequence (B2UNB9 41-709): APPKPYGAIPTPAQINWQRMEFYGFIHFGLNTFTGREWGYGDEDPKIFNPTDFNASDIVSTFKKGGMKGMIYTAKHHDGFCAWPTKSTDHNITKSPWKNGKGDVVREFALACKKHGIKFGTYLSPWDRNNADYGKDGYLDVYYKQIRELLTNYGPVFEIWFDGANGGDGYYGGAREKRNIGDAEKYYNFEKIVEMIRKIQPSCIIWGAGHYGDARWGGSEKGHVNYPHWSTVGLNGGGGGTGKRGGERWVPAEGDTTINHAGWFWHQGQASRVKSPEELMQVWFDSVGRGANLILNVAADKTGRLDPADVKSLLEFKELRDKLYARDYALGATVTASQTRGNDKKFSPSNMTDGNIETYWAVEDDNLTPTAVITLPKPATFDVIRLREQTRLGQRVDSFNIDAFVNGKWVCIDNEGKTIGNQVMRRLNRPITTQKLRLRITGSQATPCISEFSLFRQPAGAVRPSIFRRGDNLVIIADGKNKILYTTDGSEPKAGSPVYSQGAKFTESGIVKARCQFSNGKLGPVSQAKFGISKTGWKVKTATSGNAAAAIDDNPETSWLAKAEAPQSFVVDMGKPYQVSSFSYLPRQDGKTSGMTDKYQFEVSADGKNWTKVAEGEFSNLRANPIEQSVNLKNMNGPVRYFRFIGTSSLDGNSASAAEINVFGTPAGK

AmGH95A = biological target: T2, AmGH95A (Akkermansia muciniphila, UniProt B2UM81); assay: inhibition of pNPFuc hydrolysis, A405; format: biochemical
T2 construct: gene Amuc_0186; mature peptide lacking the signal peptide
T2 sequence (B2UM81 25-788): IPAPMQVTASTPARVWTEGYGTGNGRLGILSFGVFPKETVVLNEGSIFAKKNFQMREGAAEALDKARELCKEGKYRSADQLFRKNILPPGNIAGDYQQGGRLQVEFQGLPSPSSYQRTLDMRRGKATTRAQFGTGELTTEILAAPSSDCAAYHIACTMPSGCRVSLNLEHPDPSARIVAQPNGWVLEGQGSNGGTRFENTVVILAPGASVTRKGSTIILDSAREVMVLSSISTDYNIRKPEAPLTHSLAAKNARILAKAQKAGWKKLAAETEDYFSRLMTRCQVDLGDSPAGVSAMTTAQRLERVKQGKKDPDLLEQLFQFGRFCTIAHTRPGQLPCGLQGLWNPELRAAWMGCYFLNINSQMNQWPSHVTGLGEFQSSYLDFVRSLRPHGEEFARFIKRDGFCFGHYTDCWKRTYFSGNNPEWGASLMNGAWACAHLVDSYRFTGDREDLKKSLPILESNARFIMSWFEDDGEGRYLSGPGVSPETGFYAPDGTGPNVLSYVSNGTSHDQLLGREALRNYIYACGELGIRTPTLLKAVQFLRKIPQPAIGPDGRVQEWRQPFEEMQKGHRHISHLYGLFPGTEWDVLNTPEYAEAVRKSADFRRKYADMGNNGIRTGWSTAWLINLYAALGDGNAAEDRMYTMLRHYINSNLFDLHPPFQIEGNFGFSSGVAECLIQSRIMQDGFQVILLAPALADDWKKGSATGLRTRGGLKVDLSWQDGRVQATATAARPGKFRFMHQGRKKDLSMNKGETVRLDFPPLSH

SMILES: C[C@@H]1NC[C@@H](O)[C@H](O)[C@@H]1O [DFJ, 1-Deoxyfuconojirimycin]
- IC50 (AmGH29C): < 54 µM
- IC50 (AmGH95A): < 54 µM

Reference: article PMC10067855, “Sialidases and fucosidases of Akkermansia muciniphila are crucial for growth on mucin and nutrient sharing with mucus-associated gut bacteria” (Nature Communications, 2023)
